Laboratory results published in US20260231945A1, “NEMATICIDAL COMPOUNDS, THEIR COMPOSITION AND USE THEREOF” (priority 2023, published 2026).

Tested on: not listed separately
Test: Stability studies: storage at room temperature and under accelerated storage condition (ATS), purity estimated by HPLC
Type: physicochemical
Details: Day 14; 25° C. ± 2° C.; properly packed material
From the text: The properly packed material was subjected to the conditions mentioned in the table below (Table 5).

| Compound | purity estimated by HPLC, Day 14 Condition 25° C. ± 2° C. |
| --- | --- |
| N=C(N)NCCC[C@H](/N=C/C=C/c1c(O)cccc1F)C(=O)O [Example 3, (E)-N^2-[(2E)-3-(6-fluoro-2-hydroxyphenyl)prop-2-en-1-ylidene]-L-arginine] | 98.80 |
| N=C(N)NCCC[C@H](/N=C/C=C/c1ccccc1)C(=O)O [Example 9, (E)-N^2-[(2E)-3-phenylprop-2-en-1-ylidene]-L-arginine] | 99.59 |

Same assay, conditions: Day 14; 54° C. ± 2° C. (accelerated storage); properly packed material

| Compound | purity estimated by HPLC, Day 14 Condition 54° C. ± 2° C. |
| --- | --- |
| N=C(N)NCCC[C@H](/N=C/C=C/c1c(O)cccc1F)C(=O)O [Example 3, (E)-N^2-[(2E)-3-(6-fluoro-2-hydroxyphenyl)prop-2-en-1-ylidene]-L-arginine] | 98.79 |
| N=C(N)NCCC[C@H](/N=C/C=C/c1ccccc1)C(=O)O [Example 9, (E)-N^2-[(2E)-3-phenylprop-2-en-1-ylidene]-L-arginine] | 99.64 |

Same assay, conditions: Day Zero; 25° C. ± 2° C.; properly packed material

| Compound | purity estimated by HPLC, Day Zero Condition 25° C. ± 2° C. |
| --- | --- |
| N=C(N)NCCC[C@H](/N=C/C=C/c1c(O)cccc1F)C(=O)O [Example 3, (E)-N^2-[(2E)-3-(6-fluoro-2-hydroxyphenyl)prop-2-en-1-ylidene]-L-arginine] | 99.23 |
| N=C(N)NCCC[C@H](/N=C/C=C/c1ccccc1)C(=O)O [Example 9, (E)-N^2-[(2E)-3-phenylprop-2-en-1-ylidene]-L-arginine] | 99.60 |

Same assay, conditions: Day Zero; 54° C. ± 2° C. (accelerated storage); properly packed material

| Compound | purity estimated by HPLC, Day Zero Condition 54° C. ± 2° C. |
| --- | --- |
| N=C(N)NCCC[C@H](/N=C/C=C/c1c(O)cccc1F)C(=O)O [Example 3, (E)-N^2-[(2E)-3-(6-fluoro-2-hydroxyphenyl)prop-2-en-1-ylidene]-L-arginine] | 99.10 |
| N=C(N)NCCC[C@H](/N=C/C=C/c1ccccc1)C(=O)O [Example 9, (E)-N^2-[(2E)-3-phenylprop-2-en-1-ylidene]-L-arginine] | 99.63 |

Tested on: Root-knot nematodes Meloidogyne spp. juveniles (J2)
Test: whole plant or invertebrate
Type: in vivo
Details: 500 ppm; 70-100 J2 juveniles; 22±2° C., 70±5% RH; dead/inactive counted at 24, 48, 72 and 96 hours (time of rating not stated)
Description: The compound to be tested (4 mg) was dissolved in 40 μl of DMSO to make 100,000 PPM concentration stock solution. […] The nematode suspension (250 μl) having 70-100 juveniles (J2) of Root-knot nematodes Meloidogyne spp. pipetted out to each cell of 24 well bioassay plate. Sterile water (1 ml) was pipetted out in fresh 2.5 ml Eppendorf micro-centrifuge tubes. The desired concentration (500 ppm) of the compound was prepared by adding stock solution in 2.5 ml Eppendorf micro-centrifuge tubes. For each treatment 4 replications were maintained. The bioassay plates were incubated at 22±2° C. and 70±5% RH in humidity chambers.

| Compound | % Mortality Rating |
| --- | --- |
| N=C(N)NCCCC(N=CC=Cc1ccc(C(F)(F)F)cc1)C(=O)O (stereo not shown) [Example 28] | B (50-69) |
| CC(C=NC(CCCNC(=N)N)C(=O)O)=Cc1ccc(C(F)(F)F)cc1 (stereo not shown) [Example 29] | B (50-69) |
| N=C(N)NCCCC(N=CC=Cc1ccccc1C(F)(F)F)C(=O)O (stereo not shown) [Example 30] | B (50-69) |
| CCC(C=NC(CCCNC(=N)N)C(=O)O)=Cc1ccccc1OC(F)(F)F (stereo not shown) [Example 31] | C (0 to 49) |
| CCOc1ccc(C=CC=NC(CCCNC(=N)N)C(=O)O)cc1 (stereo not shown) [Example 33] | C (0 to 49) |
| C=CCc1ccc(C=CC=NC(CCCNC(=N)N)C(=O)O)cc1 (stereo not shown) [Example 34] | B (50-69) |
| C=CCc1ccc(C=CC=NC(CCCNC(=N)N)C(=O)O)c(O)c1 (stereo not shown) [Example 35] | B (50-69) |
| C=CCc1cccc(C=CC=NC(CCCNC(=N)N)C(=O)O)c1O (stereo not shown) [Example 36] | A (70-100) |
| C=CCc1cccc(C=CC=NC(CCCNC(=N)N)C(=O)O)c1OC (stereo not shown) [Example 37] | B (50-69) |
| C=CCc1ccc(C=CC=NC(CCCNC(=N)N)C(=O)O)c(OC)c1 (stereo not shown) [Example 38] | B (50-69) |
| N=C(N)NCCCC(N=CC=Cc1ccccn1)C(=O)O (stereo not shown) [Example 40] | A (70-100) |
| N=C(N)NCCCC(N=CC=Cc1ccncc1)C(=O)O (stereo not shown) [Example 42] | A (70-100) |
| N=C(N)NCCCC(N=CC=Cc1ccncn1)C(=O)O (stereo not shown) [Example 43] | A (70-100) |
| N=C(N)NCCCC(N=CC=Cc1cnccn1)C(=O)O (stereo not shown) [Example 44] | B (50-69) |
| N=C(N)NCCCC(N=CC=Cc1cccnn1)C(=O)O (stereo not shown) [Example 45] | C (0 to 49) |
| CC(C=NC(CCCNC(=N)N)C(=O)O)=Cc1cccs1 (stereo not shown) [Example 46] | B (50-69) |
| CCC(C=NC(CCCNC(=N)N)C(=O)O)=Cc1cccs1 (stereo not shown) [Example 47] | B (50-69) |

| Compound | % Mortality Rating |
| --- | --- |
| CCC(C=NC(CCCNC(=N)N)C(=O)O)=Cc1cscn1 (stereo not shown) [Example 48] | B (50-69) |
| N=C(N)NCCCC(N=CC=Cc1ccn[nH]1)C(=O)O (stereo not shown) [Example 50] | B (50-69) |
| N=C(N)NCCCC(N=CC=Cc1cnc[nH]1)C(=O)O (stereo not shown) [Example 51] | B (50-69) |
| N=C(N)NCCCC(N=CC=Cc1ncc[nH]1)C(=O)O (stereo not shown) [Example 52] | B (50-69) |
| N=C(N)NCCCC(N=CC=Cc1ncco1)C(=O)O (stereo not shown) [Example 53] | C (0 to 49) |
| N=C(N)NCCCC(N=CC=Cc1ccc[nH]1)C(=O)O (stereo not shown) [Example 54] | B (50-69) |
| N=C(N)NCCCC(N=CC=Cc1nc2ccccc2[nH]1)C(=O)O (stereo not shown) [Example 55] | C (0 to 49) |
| N=C(N)NCCCC(N=CC=Cc1ccc2scnc2c1)C(=O)O (stereo not shown) [Example 57] | A (70-100) |
| N=C(N)NCCCC(N=CC=Cc1ccc2cc[nH]c2c1)C(=O)O (stereo not shown) [Example 58] | A (70-100) |
| N=C(N)NCCCC(N=CC=Cc1ccc2c[nH]cc2c1)C(=O)O (stereo not shown) [Example 59] | A (70-100) |
| N=C(N)NCCCC(N=CC=Cc1ccc2c[nH]cc2c1Cl)C(=O)O (stereo not shown) [Example 60] | B (50-69) |
| COc1c(C=CC=NC(CCCNC(=N)N)C(=O)O)ccc2[nH]cnc12 (stereo not shown) [Example 61] | C (0 to 49) |
| N=C(N)NCCCC(N=CC=Cc1ccc2ccoc2c1)C(=O)O (stereo not shown) [Example 62] | B (50-69) |
| N=C(N)NCCCC(N=CC=Cc1cc2ccccc2o1)C(=O)O (stereo not shown) [Example 63] | A (70-100) |
| N=C(N)NCCCC(N=CC=Cc1coc2ccccc12)C(=O)O (stereo not shown) [Example 64] | B (50-69) |
| N=C(N)NCCCC(N=CC=Cc1nc2ccccc2o1)C(=O)O (stereo not shown) [Example 65] | B (50-69) |

Same assay, conditions: Meloidogyne, 70-100 J2 juveniles, 22±2° C., 70±5% RH, dead/inactive counted at 24, 48, 72 and 96 hours (time of rating not stated)

| Compound | mortality at 500 ppm [%] |
| --- | --- |
| N=C(N)NCCC[C@H](/N=C/C=C/c1ccccc1O)C(=O)O [Example 1, (E)-N^2-[(2E)-3-(2-hydroxyphenyl)prop-2-en-1-ylidene]-L-arginine] | 70 to 100 |
| N=C(N)NCCC[C@H](/N=C/C=C/c1ccc(F)cc1O)C(=O)O [Example 2, (E)-N^2-[(2E)-3-(4-fluoro-2-hydroxyphenyl)prop-2-en-1-ylidene]-L-arginine] | 50 to 69 |
| N=C(N)NCCC[C@H](/N=C/C=C/c1c(O)cccc1F)C(=O)O [Example 3, (E)-N^2-[(2E)-3-(6-fluoro-2-hydroxyphenyl)prop-2-en-1-ylidene]-L-arginine] | 50 to 69 |
| N=C(N)NCCC[C@H](/N=C/C=C/c1ccc(Cl)cc1O)C(=O)O [Example 4, (E)-N^2-[(2E)-3-(4-chloro-2-hydroxyphenyl)prop-2-en-1-ylidene]-L-arginine] | 50 to 69 |
| COc1ccc(O)c(/C=C/C=N/[C@@H](CCCNC(=N)N)C(=O)O)c1 [Example 5, (E)-N^2-[(2E)-3-(2-hydroxy-5-methoxyphenyl)prop-2-en-1-ylidene]-L-arginine] | 50 to 69 |
| COc1ccccc1/C=C/C=N/[C@@H](CCCNC(=N)N)C(=O)O [Example 6, (E)-N^2-[(2E)-3-(2-methoxyphenyl)prop-2-en-1-ylidene]-L-arginine] | 70 to 100 |
| COc1ccc(/C=C/C=N/[C@@H](CCCNC(=N)N)C(=O)O)cc1 [Example 7, (E)-N^2-[(2E)-3-(4-methoxyphenyl)prop-2-en-1-ylidene]-L-arginine] | 70 to 100 |
| COc1cc(/C=C/C=N/[C@@H](CCCNC(=N)N)C(=O)O)ccc1OC(C)=O [Example 8, (E)-N^2-{(2E)-3-[4-(acetyloxy)-3-methoxyphenyl]prop-2-en-1-ylidene}-L-arginine] | 0 to 49 |
| N=C(N)NCCC[C@H](/N=C/C=C/c1ccccc1)C(=O)O [Example 9, (E)-N^2-[(2E)-3-phenylprop-2-en-1-ylidene]-L-arginine] | 70 to 100 |
| CC(/C=N/[C@@H](CCCNC(=N)N)C(=O)O)=C\c1ccccc1 [Example 10, (E)-N^2-[(2E)-2-methyl-3-phenylprop-2-en-1-ylidene]-L-arginine] | 70 to 100 |
| CCC(/C=N/[C@@H](CCCNC(=N)N)C(=O)O)=C\c1ccccc1 [Example 11, (E)-N^2-[(2E)-2-benzylidenebutylidene]-L-arginine] | 70 to 100 |
| CCCCCC(/C=N/[C@@H](CCCNC(=N)N)C(=O)O)=C\c1ccccc1 [Example 12, (E)-N^2-[(2E)-2-benzylideneheptylidene]-L-arginine] | 0 to 49 |
| CCCCCCC(/C=N/[C@@H](CCCNC(=N)N)C(=O)O)=C\c1ccccc1 [Example 13, (E)-N^2-[(2E)-2-benzylideneoctylidene]-L-arginine] | 0 to 49 |
| N=C(N)NCCC[C@H](/N=C/C=C/c1ccco1)C(=O)O [Example 14, (E)-N^2-[(2E)-3-(furan-2-yl)prop-2-en-1-ylidene]-L-arginine] | 70 to 100 |
| CC(/C=N/[C@@H](CCCNC(=N)N)C(=O)O)=C\c1ccco1 [Example 15, (E)-N^2-[(2E)-3-(furan-2-yl)-2-methylprop-2-en-1-ylidene]-L-arginine] | 50 to 69 |
| CCC(/C=N/[C@@H](CCCNC(=N)N)C(=O)O)=C\c1ccco1 [Example 16, (E)-N^2-{(2E)-2-[(furan-2-yl)methylidene]butylidene}-L-arginine] | 0 to 49 |
| COc1cc(/C=C/C=N/[C@@H](CCCNC(=N)N)C(=O)O)ccc1O [Example 17, (E)-N^2-[(2E)-3-(4-hydroxy-3-methoxyphenyl)prop-2-en-1-ylidene]-L-arginine] | 70 to 100 |
| CC(=O)Oc1ccc(/C=C/C=N/[C@@H](CCCNC(=N)N)C(=O)O)cc1 [Example 18, (E)-N^2-{(2E)-3-[4-(acetyloxy)phenyl]prop-2-en-1-ylidene}-L-arginine] | 70 to 100 |
| N=C(N)NCCC[C@H](/N=C/C=C/c1ccccc1OC(=O)c1ccccc1)C(=O)O [Example 19, (E)-N^2-{(2E)-3-[2-(benzoyloxy)phenyl]prop-2-en-1-ylidene}-L-arginine] | 0 to 49 |
| N=C(N)NCCC[C@H](/N=C/C=C/c1ccsc1)C(=O)O [Example 21, (E)-N^2-[(2E)-3-(thiophen-3-yl)prop-2-en-1-ylidene]-L-arginine] | 70 to 100 |
| N=C(N)NCCC[C@H](/N=C/C=C/c1nc2ccccc2s1)C(=O)O [Example 22, (E)-N^2-[(2E)-3-(1,3-benzothiazol-2-yl)prop-2-en-1-ylidene]-L-arginine] | 70 to 100 |
| N=C(N)NCCC[C@H](/N=C/C=C/c1nccs1)C(=O)O [Example 23, (E)-N^2-[(2E)-3-(1,3-thiazol-2-yl)prop-2-en-1-ylidene]-L-arginine] | 50 to 69 |
| Cc1ccc(/C=C/C=N/[C@@H](CCCNC(=N)N)C(=O)O)cc1 [Example 25, (E)-N^2-[(2E)-3-(4-methylphenyl)prop-2-en-1-ylidene]-L-arginine] | 70 to 100 |
